Laboratory results reported in ChEMBL document CHEMBL1139949, “Structure-activity relationship, kinetic mechanism, and selectivity for a new class of ubiquitin C-terminal hydrolase-L1 (UCH-L1) inhibitors” (Bioorg Med Chem Lett, 2007).
Calls of active or inactive are those of the source. The calls are words filed in the database; no cut-off is given here.

Assays:
[1] = biological target: T1, Papain (Carica papaya) (UniProt P00784); test: Inhibition of papain at 40 uM
T1 sequence (whole entry): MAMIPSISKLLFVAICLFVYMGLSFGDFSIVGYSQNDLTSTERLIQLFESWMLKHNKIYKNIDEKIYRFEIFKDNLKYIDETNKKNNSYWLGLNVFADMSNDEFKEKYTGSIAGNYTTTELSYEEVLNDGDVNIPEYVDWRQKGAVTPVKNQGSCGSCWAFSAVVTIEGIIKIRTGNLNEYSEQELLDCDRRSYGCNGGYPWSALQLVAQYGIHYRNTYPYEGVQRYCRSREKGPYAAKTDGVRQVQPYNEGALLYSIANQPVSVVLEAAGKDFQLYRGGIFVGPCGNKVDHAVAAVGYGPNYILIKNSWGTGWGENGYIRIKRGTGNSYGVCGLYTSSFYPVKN

[2] = biological target: T2, Ubiquitin carboxyl-terminal hydrolase isozyme L3 (Homo sapiens) (UniProt P15374); test: Inhibition of UCHL3 at 20 uM
T2 sequence (whole entry): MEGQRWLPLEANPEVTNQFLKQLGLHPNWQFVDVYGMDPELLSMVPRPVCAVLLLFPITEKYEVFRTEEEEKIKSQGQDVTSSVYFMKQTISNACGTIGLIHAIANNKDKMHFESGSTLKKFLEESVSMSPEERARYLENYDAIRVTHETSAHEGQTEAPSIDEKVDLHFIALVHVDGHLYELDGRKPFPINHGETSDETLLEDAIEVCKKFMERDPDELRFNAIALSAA

[3] = biological target: T3, Protein-glutamine gamma-glutamyltransferase (Homo sapiens) (UniProt P21980); test: Inhibition of TGase 2 at 40 uM
T3 sequence (whole entry): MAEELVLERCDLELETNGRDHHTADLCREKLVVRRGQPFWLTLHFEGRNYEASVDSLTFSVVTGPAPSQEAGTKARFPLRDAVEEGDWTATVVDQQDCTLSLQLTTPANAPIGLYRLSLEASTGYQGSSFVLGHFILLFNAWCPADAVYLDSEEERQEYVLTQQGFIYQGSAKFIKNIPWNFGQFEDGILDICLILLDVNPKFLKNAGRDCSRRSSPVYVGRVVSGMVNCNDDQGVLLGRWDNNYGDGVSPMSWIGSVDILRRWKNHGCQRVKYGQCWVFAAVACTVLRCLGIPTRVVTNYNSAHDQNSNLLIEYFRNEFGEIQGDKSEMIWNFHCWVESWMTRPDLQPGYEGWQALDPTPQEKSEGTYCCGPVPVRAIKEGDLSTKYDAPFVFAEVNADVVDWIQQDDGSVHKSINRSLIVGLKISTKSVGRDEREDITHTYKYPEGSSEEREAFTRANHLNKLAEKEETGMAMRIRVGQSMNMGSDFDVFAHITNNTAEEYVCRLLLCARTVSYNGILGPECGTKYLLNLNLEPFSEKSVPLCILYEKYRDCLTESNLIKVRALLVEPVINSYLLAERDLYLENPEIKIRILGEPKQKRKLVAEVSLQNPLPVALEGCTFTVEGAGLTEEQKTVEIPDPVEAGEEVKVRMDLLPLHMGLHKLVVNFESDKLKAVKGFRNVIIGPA

[4] = biological target: T4, Caspase-3 (Homo sapiens) (UniProt P42574); test: Inhibition of caspase 3 at 40 uM
T4 sequence (whole entry): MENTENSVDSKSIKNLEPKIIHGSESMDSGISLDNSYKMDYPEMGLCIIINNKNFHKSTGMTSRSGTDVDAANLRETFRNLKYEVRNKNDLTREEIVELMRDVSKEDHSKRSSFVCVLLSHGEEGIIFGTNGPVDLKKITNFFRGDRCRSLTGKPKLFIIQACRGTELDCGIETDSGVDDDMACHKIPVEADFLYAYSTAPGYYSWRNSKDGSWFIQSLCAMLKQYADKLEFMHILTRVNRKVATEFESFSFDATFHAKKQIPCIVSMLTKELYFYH

[5] = tested on: N2a; test: Cytotoxicity against serum-starved mouse N2A cells at 0.1 mM; format: cell-based; details: 100 µM
[6] = biological target: T5, Ubiquitin carboxyl-terminal hydrolase 5 (Homo sapiens) (UniProt P45974); test: Inhibition of isopeptidase T at 40 uM
T5 sequence (whole entry): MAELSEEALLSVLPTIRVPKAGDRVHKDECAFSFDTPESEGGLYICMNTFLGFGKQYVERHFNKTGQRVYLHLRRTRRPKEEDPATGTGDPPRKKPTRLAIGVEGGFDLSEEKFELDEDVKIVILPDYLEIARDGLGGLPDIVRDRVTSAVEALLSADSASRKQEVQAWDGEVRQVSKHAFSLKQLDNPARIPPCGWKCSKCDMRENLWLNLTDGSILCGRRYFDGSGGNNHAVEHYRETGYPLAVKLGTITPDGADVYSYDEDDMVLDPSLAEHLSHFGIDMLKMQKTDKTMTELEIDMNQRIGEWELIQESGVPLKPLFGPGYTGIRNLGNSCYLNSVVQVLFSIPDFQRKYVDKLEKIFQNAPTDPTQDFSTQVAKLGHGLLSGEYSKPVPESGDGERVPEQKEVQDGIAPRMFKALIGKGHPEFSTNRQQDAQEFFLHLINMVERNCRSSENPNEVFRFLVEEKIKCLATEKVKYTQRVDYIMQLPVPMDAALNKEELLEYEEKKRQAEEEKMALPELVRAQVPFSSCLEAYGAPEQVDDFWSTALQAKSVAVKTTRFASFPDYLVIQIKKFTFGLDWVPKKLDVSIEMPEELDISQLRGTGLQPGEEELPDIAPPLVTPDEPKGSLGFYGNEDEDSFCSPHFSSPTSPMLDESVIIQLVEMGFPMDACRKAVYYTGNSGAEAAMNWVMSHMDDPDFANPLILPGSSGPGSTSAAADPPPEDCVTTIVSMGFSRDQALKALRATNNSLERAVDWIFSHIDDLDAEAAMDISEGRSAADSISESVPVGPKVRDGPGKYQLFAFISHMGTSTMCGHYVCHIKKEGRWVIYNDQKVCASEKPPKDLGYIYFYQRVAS

| SMILES | Activity [1] | Activity [2] | Activity [3] | Activity [4] | Activity [5] | inhibition [2] | Activity [6] |
| --- | --- | --- | --- | --- | --- | --- | --- |
| Nc1c(C(=O)c2ccc(Cl)cc2)sc2[nH]c(=O)c(C(=O)O)cc12 | inactive |  |  |  |  |  |  |
| Cl.Nc1c(C(=O)c2ccccc2)sc2[nH]c(=O)c(C(=O)O)cc12 | inactive | inactive | inactive | inactive | Non-toxic |  |  |
| Cc1ccc(C(=O)c2sc3[nH]c(=O)c(C(=O)O)cc3c2N)cc1 | inactive |  |  |  |  | 30% | inactive |
